Experimental data taken from patent US7923445B2, “Methods for treatment of diseases related to activated lymphocytes” (Immune Control, Inc., priority 2006, dated 2011).

What was measured:
TNF-α = assay: LPS-mediated cytokine production model, serum TNF-α; format: in vivo, CD1:ICR mice; details: for TNFα inhibition, IV versus IP administration: pre-dose time course, 10 mg/kg; for TNFα inhibition in dose-response study: IP, up to a dose of 5 mg/kg, pre-dose 1 hr
Text: Bolus injection of lethal or sub-lethal doses of lipopolysaccharide (LPS; the major component of bacterial cell walls) results in a rapid and transient rise in serum cytokine levels (e.g. TNF-α) in mammals. This animal model was originally developed to mirror certain aspects of septic shock in humans; however, there is poor correlation between efficacy in LPS-rodent models and clinical efficacy. However, this model may be an effective first-line general inflammation model and could be useful in determining the anti-inflammatory potential of test compounds. A variety of clinically approved anti-inflammatory compounds, including glucocorticoids, NSAIDS and COX-2 inhibitors are extremely effective in this model. Compounds ICI-685 and ICI-735 were tested for their ability to inhibit LPS-stimulated TNF-α and IL-1β production.
Both ICI-685 and ICI-735 were formulated in water. For the time course study, both drugs were formulated at a concentration of 1 mg/ml and dosed 10 ml/kg to produce a dose of 10 mg/kg. For the dose-response study, drug was formulated at concentrations of 0.05, 0.2 and 0.5 mg/ml and dosed at a volume of 10 ml/kg to produce doses of 0.5, 2 and 5 mg/kg, respectively. Animals were dosed IV or IP.
CD1:ICR mice were obtained from Harlan (Indianapolis, Ind.) at 6 weeks of age. Animals were housed 5 per cage, kept on a 12 hr light dark cycle and fed food and water ad libitum. Animals were tested at 8-10 weeks of age.
Lipopolysaccharide (heat killed E. coli 0127:B5; Sigma Aldrich) was prepared in distilled water at a concentration of 0.025 mg/ml. LPS was dosed at a volume of 10 ml/kg (IP) to produce a final dose of 0.25 mg/kg (approximately 7.5 μg/mouse). Drugs were dosed prior to LPS administration as indicated elsewhere herein. Blood was collected by retro-orbital eye bleed 90 minutes after LPS administration. Serum was prepared from blood and TNF-α and IL-1β levels were measured by using the OPT-EIA mouse TNF-α and IL-1β ELISA kits (BD Biosciences) as per directions of the manufacturer.
The first study was designed to determine the optimal route of administration and the optimal pre-treatment time. Two pre-dose time course studies were conducted. The first (Study 1A) was conducted with 3 pre-dose time points (2, 6 and 18 hrs). The second was conducted at 0, 1 and 2 hr predose time points. For both studies, drug was dosed IP or IV.
Using data from the first study, a second study was conducted that was designed to measure dose-response activity of each compound. Compounds were tested at doses of 0, 2.0 and 5 mg/kg using the route and pre-treatment time that produced the best activity. […]
Using data from the first study, a second study was conducted that was designed to measure dose-response activity of each compound. Compounds were tested at doses of 0.5, 2.0 and 5 mg/kg using the route and pre-treatment time that produced the best activity.

[1] = tested on: Aspergillus fumigatus-based mouse asthma model; assay: Aspergillus fumigatus-based mouse asthma model, lung resistance; format: in vivo; details: intraperitoneally at a dose of 20 mg/ml
Experimental: Compounds of the invention were also tested for efficiacy in an asthma model.
A cohort of mice were administered intraperitoneal injections of Aspergillus fumigatus on days 0, 14, 26, 27, and 28. Lung resistance was tested on day 29 immediately following a tracheotomy/methacholine procedure. Animals receiving dexamethasone were administered dexamethasone on days 26, 27 and 28. Animals receiving a compound of the invention were administered the compound just hours before the lung resistance test. As a control, all test compounds, as well as dexamethasone, were also administered to mice in the absence of an A. fumigatus insult.

[2] = tested on: mice sensitized with collagen injections; assay: Clinical arthritis score in mice sensitized with collagen injections; format: in vivo
Experimental: FIGS. 26-28 illustrate the effect of various compounds of the invention on the clinical arthritis score of mice treated with various compounds of the invention.
Additional testing of the effectiveness of compounds ICI-685, ICI-735 and ICI-847 at higher and lower concentrations were conducted, as illustrated in FIG. 29.

| SMILES | TNFα inhibition, IV versus IP administration (TNF-α) | decreasing lung resistance, compared with dexamethasone [1] | TNFα inhibition in dose-response study (TNF-α) | clinical arthritis score, compared with dexamethasone ([2]; 30 mg/kg) | clinical arthritis score, compared with dexamethasone ([2]; orally at 10 mg/kg daily, for about 21 days) |
| --- | --- | --- | --- | --- | --- |
| CN(C)S(=O)(=O)c1ccc2c(c1)N(CCCN1CCN(CCN)CC1)c1ccccc1S2 [ICI-715] | IV administration of ICI-715 produced slightly better inhibition than IV administration | – | – | – | – |
| NCC(=O)NCCN1CCN(CCCN2c3ccccc3Sc3ccc(C(F)(F)F)cc32)CC1 [ICI-735] | – | at least as effective as dexamethasone | – | – | – |
| FC(F)(F)c1ccc2c(c1)N(CCCC1CCNCC1)c1ccccc1S2 [ICI-824] | IP administration produced slightly better inhibition than IV administration | – | ineffective | – | – |
| NCCCN1CCC(CCCN2c3ccccc3Sc3ccc(C(F)(F)F)cc32)CC1 [ICI-847] | – | at least as effective as dexamethasone | – | as effective for the length of the study as is dexamethasone | as effective as dexamethasone |
| NCCN1CCN(CCCCN2c3ccccc3Sc3ccc(C(F)(F)F)cc32)CC1 [ICI-953] | IP administration produced slightly better inhibition than IV administration | – | ineffective | – | – |
| NCC(=O)NCCN1CCN(CCCCN2c3ccccc3Sc3ccc(C(F)(F)F)cc32)CC1 [ICI-954] | IP administration produced slightly better inhibition than IV administration | – | ineffective | – | – |
